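In this assay, cells in 96-well plates receive the compound at five concentrations for 48 hours. Endpoints are linearly interpolated between the surrounding concentrations. Here, GI50 denotes the concentration required for 50% inhibition of growth. TGI denotes the concentration required for complete inhibition of growth.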
Tests used:
Assay in all cases: inhibition of tumour cell growth, NCI panel, 48 h
U251 CNS = test system: U251 CNS
HOP-62 NSCLC = test system: HOP-62 NSCLC
UO-31 renal = test system: UO-31 renal
M14 melanoma = test system: M14 melanoma
HT29 colon = test system: HT29 colon
TK-10 renal = test system: TK-10 renal
CAKI-1 renal = test system: CAKI-1 renal
HOP-92 NSCLC = test system: HOP-92 NSCLC
MOLT-4 leukemia = test system: MOLT-4 leukemia
NCI-H23 lung = test system: NCI-H23 lung
SNB-19 CNS = test system: SNB-19 CNS
K-562 leukemia = test system: K-562 leukemia
SN12C renal = test system: SN12C renal
BT-549 breast = test system: BT-549 breast
SK-OV-3 ovarian = test system: SK-OV-3 ovarian
NCI-H460 lung = test system: NCI-H460 lung
SK-MEL-5 melanoma = test system: SK-MEL-5 melanoma
CCRF-CEM leukemia = test system: CCRF-CEM leukemia
DU-145 prostate = test system: DU-145 prostate
SNB-75 CNS = test system: SNB-75 CNS
IGROV1 ovarian = test system: IGROV1 ovarian
HL-60(TB) leukemia = test system: HL-60(TB) leukemia
EKVX NSCLC = test system: EKVX NSCLC
MDA-MB-231 breast = test system: MDA-MB-231 breast
SK-MEL-28 melanoma = test system: SK-MEL-28 melanoma
UACC-62 melanoma = test system: UACC-62 melanoma
NCI-H226 lung = test system: NCI-H226 lung
HCC-2998 colon = test system: HCC-2998 colon
RPMI-8226 leukemia = test system: RPMI-8226 leukemia
COLO 205 colon = test system: COLO 205 colon
A498 renal = test system: A498 renal
HCT-116 colon = test system: HCT-116 colon
SW-620 colon = test system: SW-620 colon
HS 578T breast = test system: HS 578T breast
SF-268 CNS = test system: SF-268 CNS
KM12 colon = test system: KM12 colon
OVCAR-4 ovarian = test system: OVCAR-4 ovarian
MDA-MB-435 = test system: MDA-MB-435
T-47D breast = test system: T-47D breast
A549 NSCLC = test system: A549 NSCLC
PC-3 prostate = test system: PC-3 prostate
SK-MEL-2 melanoma = test system: SK-MEL-2 melanoma
UACC-257 melanoma = test system: UACC-257 melanoma
786-0 renal = test system: 786-0 renal
HCT-15 colon = test system: HCT-15 colon
LOX IMVI melanoma = test system: LOX IMVI melanoma
RXF 393 renal = test system: RXF 393 renal
SR leukemia = test system: SR leukemia
ACHN renal = test system: ACHN renal
MALME-3M melanoma = test system: MALME-3M melanoma
SF-539 CNS = test system: SF-539 CNS
OVCAR-8 ovarian = test system: OVCAR-8 ovarian
OVCAR-3 ovarian = test system: OVCAR-3 ovarian
MCF7 breast = test system: MCF7 breast
NCI/ADR-RES ovarian = test system: NCI/ADR-RES ovarian
OVCAR-5 ovarian = test system: OVCAR-5 ovarian
SF-295 CNS = test system: SF-295 CNS
NCI-H522 lung = test system: NCI-H522 lung

C=C(C)[C@@H]1CC[C@]2(C)[C@H](CC[C@@H]3[C@@H]([C@@](C)(O)CCC=C(C)C)CC[C@]32C)[C@@]1(C)CCC(=O)O
GI50 (U251 CNS): 16.6 µM | TGI (U251 CNS): 31.8 µM | GI50 (HOP-62 NSCLC): 18.6 µM | TGI (HOP-62 NSCLC): 45.3 µM | GI50 (UO-31 renal): 15.7 µM | TGI (UO-31 renal): 29.4 µM | GI50 (M14 melanoma): 16.4 µM | TGI (M14 melanoma): 36.1 µM | GI50 (HT29 colon): 24.1 µM | TGI (HT29 colon): > 100 µM | GI50 (TK-10 renal): 40.6 µM | TGI (TK-10 renal): > 100 µM | GI50 (CAKI-1 renal): 13.9 µM | TGI (CAKI-1 renal): 27.7 µM | GI50 (HOP-92 NSCLC): 12.7 µM | TGI (HOP-92 NSCLC): 27.2 µM | GI50 (MOLT-4 leukemia): 15.4 µM | TGI (MOLT-4 leukemia): 52.7 µM | GI50 (NCI-H23 lung): 18.1 µM | TGI (NCI-H23 lung): 35.6 µM | GI50 (SNB-19 CNS): 18.8 µM | TGI (SNB-19 CNS): 34.9 µM | GI50 (K-562 leukemia): 18.5 µM | TGI (K-562 leukemia): 90.5 µM | GI50 (SN12C renal): 17.2 µM | TGI (SN12C renal): 40.5 µM | GI50 (BT-549 breast): 16.8 µM | TGI (BT-549 breast): 35.8 µM | GI50 (SK-OV-3 ovarian): 32.9 µM | TGI (SK-OV-3 ovarian): > 100 µM | GI50 (NCI-H460 lung): 31.9 µM | TGI (NCI-H460 lung): > 100 µM | GI50 (SK-MEL-5 melanoma): 15.2 µM | TGI (SK-MEL-5 melanoma): 29 µM | GI50 (CCRF-CEM leukemia): 18 µM | TGI (CCRF-CEM leukemia): 48.2 µM | GI50 (DU-145 prostate): 16.7 µM | TGI (DU-145 prostate): 32.4 µM | GI50 (SNB-75 CNS): 15.3 µM | TGI (SNB-75 CNS): 34.8 µM | GI50 (IGROV1 ovarian): 18.7 µM | TGI (IGROV1 ovarian): 38.4 µM | GI50 (HL-60(TB) leukemia): 20.6 µM | TGI (HL-60(TB) leukemia): 54.5 µM | GI50 (EKVX NSCLC): 24.2 µM | TGI (EKVX NSCLC): 59.6 µM | GI50 (MDA-MB-231 breast): 16.6 µM | TGI (MDA-MB-231 breast): 33.1 µM | GI50 (SK-MEL-28 melanoma): 16.3 µM | TGI (SK-MEL-28 melanoma): 30.3 µM | GI50 (UACC-62 melanoma): 13.9 µM | TGI (UACC-62 melanoma): 29.5 µM | GI50 (NCI-H226 lung): 18.1 µM | TGI (NCI-H226 lung): 37.3 µM | GI50 (HCC-2998 colon): 21.2 µM | TGI (HCC-2998 colon): 37.8 µM | GI50 (RPMI-8226 leukemia): 12.2 µM | TGI (RPMI-8226 leukemia): 38.2 µM | GI50 (COLO 205 colon): 17.7 µM | TGI (COLO 205 colon): 35.6 µM | GI50 (A498 renal): 29.5 µM | TGI (A498 renal): > 100 µM | GI50 (HCT-116 colon): 15.4 µM | TGI (HCT-116 colon): 29.8 µM | GI50 (SW-620 colon): 28.5 µM | TGI (SW-620 colon): > 100 µM | GI50 (HS 578T breast): 24 µM | TGI (HS 578T breast): 86.9 µM | GI50 (SF-268 CNS): 16.1 µM | TGI (SF-268 CNS): 32.8 µM | GI50 (KM12 colon): 16.3 µM | TGI (KM12 colon): 32.4 µM | GI50 (OVCAR-4 ovarian): 16.3 µM | TGI (OVCAR-4 ovarian): 39 µM | GI50 (MDA-MB-435): 17.9 µM | TGI (MDA-MB-435): 38.6 µM | GI50 (T-47D breast): 21.5 µM | TGI (T-47D breast): > 100 µM | GI50 (A549 NSCLC): 23.3 µM | TGI (A549 NSCLC): 91.9 µM | GI50 (PC-3 prostate): 11.3 µM | TGI (PC-3 prostate): 27.2 µM | GI50 (SK-MEL-2 melanoma): 17.6 µM | TGI (SK-MEL-2 melanoma): 39 µM | GI50 (UACC-257 melanoma): 23.8 µM | TGI (UACC-257 melanoma): 96.4 µM | GI50 (786-0 renal): 18.7 µM | TGI (786-0 renal): 36.7 µM | GI50 (HCT-15 colon): 15.4 µM | TGI (HCT-15 colon): 31 µM | GI50 (LOX IMVI melanoma): 17.9 µM | TGI (LOX IMVI melanoma): 31.8 µM | GI50 (RXF 393 renal): 14.3 µM | TGI (RXF 393 renal): 28.6 µM | GI50 (SR leukemia): 16.5 µM | TGI (SR leukemia): 44.7 µM | GI50 (ACHN renal): 21.7 µM | TGI (ACHN renal): 54.3 µM | GI50 (MALME-3M melanoma): 14.4 µM | TGI (MALME-3M melanoma): 28.2 µM | GI50 (SF-539 CNS): 16 µM | TGI (SF-539 CNS): 29.9 µM | GI50 (OVCAR-8 ovarian): 19 µM | TGI (OVCAR-8 ovarian): 43 µM | GI50 (OVCAR-3 ovarian): 15.9 µM | TGI (OVCAR-3 ovarian): 29.8 µM | GI50 (MCF7 breast): 19.7 µM | TGI (MCF7 breast): 49.3 µM | GI50 (NCI/ADR-RES ovarian): 20.2 µM | TGI (NCI/ADR-RES ovarian): 41.3 µM | GI50 (OVCAR-5 ovarian): 17.6 µM | TGI (OVCAR-5 ovarian): 34.2 µM | GI50 (SF-295 CNS): 17.7 µM | TGI (SF-295 CNS): 32.2 µM | GI50 (NCI-H522 lung): 20.3 µM | TGI (NCI-H522 lung): 63.5 µM
